Test results as given in patent US11285099B2, “Topical phenytoin for use in the treatment of peripheral neuropathic pain” (Topical Innovations B.V., priority 2016, dated 2022).
Entries after “also recorded” stand apart in the source; their conditions may differ. Where two headings read alike, the source gives them in different places.

How the values were obtained:
[1] = test system: peripheral neuropathic pain; experiment: Patient cases: topical application on the skin, pain scored on the 11-point numerical rating scale (NRS); settings: individual patients of Cases 1-15
[2] = partition coefficient between octanol and water; cited from earlier work
[3] = cited from earlier work
neuropathic pain = settings: in vivo; cited from earlier work
[4] = after oral administration; cited from earlier work

Row | SMILES | analgesic effect of other or earlier treatment in the patient's history [1] | tolerability of earlier treatment in the patient's history (words) [1] | Log P [2] | further results
1 | CNCC[C@H](Oc1cccc2ccccc12)c1cccs1 [duloxetine] | did not have any effect | induced too many side effects | – | –
2 | NCC1(CC(=O)O)CCCCC1 [gabapentin] | did not have any effect | – | – | –
3 | O=[N+]([O-])O[C@H]1CO[C@H]2[C@@H]1OC[C@H]2O[N+](=O)[O-] [Isosorbide dinitrate] | – | – | 1.3 | –
4 | CN(C)C(=O)C(CCN1CCC(O)(c2ccc(Cl)cc2)CC1)(c1ccccc1)c1ccccc1 [Loperamide] | – | – | 5.5 | –
5 | CNC1(c2ccccc2Cl)CCCCC1=O (centres unmarked) [Ketamine] | – | – | 2.9 | –
6 | O=C1NC(=O)C(c2ccccc2)(c2ccccc2)N1.[Na] [phenytoin sodium, sodium 5,5-diphenyl-2,4-imidazolidinedione] | – | – | – | solubility in water ([3]; 37° C., pH 10): about 2 mg/ml; maximum solubility in water ([3]; 37° C., pH 11.1): about 140 mg/mL; solubility in water ([3]; 37° C., pH range between 1 and 6): 35 to 40 µg/mL; pH at which dissolvable in water in significant amounts ([3]; according to US 2009/0022779): ≥ 12 pH
7 | CN(C)CCC=C1c2ccccc2CCc2ccccc21 [amitriptyline] | no effect; also recorded: did not have any analgesic effect | induced too many side effects | – | –
8 | CC(C)C[C@H](CN)CC(=O)O [pregabalin] | did not have any effect | induced too many side effects | – | day at which significant pain reduction or relief versus placebo was shown (neuropathic pain): 2 days; median onset of action (>30% pain reduction) (neuropathic pain): 36 days; tolerability of earlier treatment in the patient's history (words) ([1]; listed as Pregabalin): too much side effects
9 | COc1cccc(C2(O)CCCCC2CN(C)C)c1 (centres unmarked) [tramadol] | did not have any analgesic effect | induced too many side effects | – | –
10 | O=C(O)Cc1ccccc1Nc1c(Cl)cccc1Cl [diclofenac] | – | – | – | Cmax. of diclofenac in corresponding tissue [4]: 1160 ng/mL
